Measurements taken from ChEMBL document CHEMBL3885861, “Open TG-GATES”.

Species on record: Rattus norvegicus
Test: Open TG-GATES - Regimen: Daily Repeat
Type: toxicity, organism-based, Sprague-Dawley
Set-up: regimen Daily Repeat, gender Male, age 6 weeks
Conditions: in vivo, po, 150 mg/kg, route gavage, dose level High; for APTT / Bas / Eos / Fbg / Hb / Ht / Lym / MCH / MCHC / MCV / Mono / Neu / PT / Plat / RBC / Ret / WBC: tissue Blood; for KIDNEY_L / KIDNEY_R / KIDNEY_TOTAL: tissue Kidney; for LIVER: tissue Liver; for A/G / ALP / ALT / AST / BUN / CRE / Ca / Cl / DBIL / GLC / IP / K / LDH / Na / PL / RALB / TBIL / TC / TG / TP / gamma-GTP: tissue Plasma

CN(C)CCC=C1c2ccccc2CCc2ccccc21 [AMITRIPTYLINE]
TERMINAL_BW (72 h, time 3 day): 200.8 g | APTT (72 h, time 3 day): 15 s | Bas (72 h, time 3 day): 0.2% | Eos (72 h, time 3 day): 1.2% | Fbg (72 h, time 3 day): 288.6 mg/dL | Hb (72 h, time 3 day): 14.4 g/dL | Ht (72 h, time 3 day): 43.5% | Lym (72 h, time 3 day): 79.6% | MCH (72 h, time 3 day): 20.5 pg | MCHC (72 h, time 3 day): 33.2% | MCV (72 h, time 3 day): 61.8 fL | Mono (72 h, time 3 day): 2.4% | Neu (72 h, time 3 day): 16.2% | PT (72 h, time 3 day): 16 s | Plat (72 h, time 3 day): 125 x10_4/uL | RBC (72 h, time 3 day): 705 x10_4/ul | Ret (72 h, time 3 day): 4.5% | WBC (72 h, time 3 day): 87.2 x10_2/uL | KIDNEY_L (72 h, time 3 day): 0.9 g | KIDNEY_R (72 h, time 3 day): 0.9 g | KIDNEY_TOTAL (72 h, time 3 day): 1.8 g | LIVER (72 h, time 3 day): 9.1 g | A/G (72 h, time 3 day): 0.8 | ALP (72 h, time 3 day): 1755.4 IU/L | ALT (72 h, time 3 day): 45.4 IU/L | AST (72 h, time 3 day): 63 IU/L | BUN (72 h, time 3 day): 13.8 mg/dL | CRE (72 h, time 3 day): 0.2 mg/dL | Ca (72 h, time 3 day): 10.7 mg/dL | Cl (72 h, time 3 day): 106.2 meq/L | DBIL (72 h, time 3 day): 0.016 mg/dL | GLC (72 h, time 3 day): 174.4 mg/dL | IP (72 h, time 3 day): 8 mg/dL | K (72 h, time 3 day): 4.4 meq/L | LDH (72 h, time 3 day): 86.2 IU/L | Na (72 h, time 3 day): 143.8 meq/L | PL (72 h, time 3 day): 155.8 mg/dL | RALB (72 h, time 3 day): 2.6 g/dL | TBIL (72 h, time 3 day): 0.052 mg/dL | TC (72 h, time 3 day): 94.2 mg/dL | TG (72 h, time 3 day): 93 mg/dL | TP (72 h, time 3 day): 5.8 g/dL | gamma-GTP (72 h, time 3 day): 0.6 IU/L | TERMINAL_BW ([…], time 7 day): 206.8 g | TERMINAL_BW ([…], time 14 day): 250.8 g | TERMINAL_BW ([…], time 28 day): 303.4 g | APTT ([…], time 7 day): 16.2 s | Bas ([…], time 7 day): 0% | Eos ([…], time 7 day): 1.4% | Fbg ([…], time 7 day): 413.4 mg/dL | Hb ([…], time 7 day): 15.3 g/dL | Ht ([…], time 7 day): 45.5% | Lym ([…], time 7 day): 70.8% | MCH ([…], time 7 day): 20.6 pg | MCHC ([…], time 7 day): 33.5% | MCV ([…], time 7 day): 61.6 fL | Mono ([…], time 7 day): 2.4% | Neu ([…], time 7 day): 24.6% | PT ([…], time 7 day): 15.9 s | Plat ([…], time 7 day): 108.8 x10_4/uL | RBC ([…], time 7 day): 740.8 x10_4/ul | Ret ([…], time 7 day): 3.1% | WBC ([…], time 7 day): 99.3 x10_2/uL | APTT ([…], time 14 day): 16.2 s | Bas ([…], time 14 day): 0.6% | Eos ([…], time 14 day): 0.8% | Fbg ([…], time 14 day): 326.6 mg/dL | Hb ([…], time 14 day): 15 g/dL | Ht ([…], time 14 day): 44.7% | Lym ([…], time 14 day): 76.6% | MCH ([…], time 14 day): 19.7 pg | MCHC ([…], time 14 day): 33.6% | MCV ([…], time 14 day): 58.6 fL | Mono ([…], time 14 day): 2.4% | Neu ([…], time 14 day): 19.2% | PT ([…], time 14 day): 16.6 s | Plat ([…], time 14 day): 110.7 x10_4/uL | RBC ([…], time 14 day): 763.4 x10_4/ul | Ret ([…], time 14 day): 2.8% | WBC ([…], time 14 day): 128.1 x10_2/uL | APTT ([…], time 28 day): 22.2 s | Bas ([…], time 28 day): 0.3% | Eos ([…], time 28 day): 1% | Fbg ([…], time 28 day): 311.3 mg/dL | Hb ([…], time 28 day): 15.8 g/dL | Ht ([…], time 28 day): 46.1% | Lym ([…], time 28 day): 82% | MCH ([…], time 28 day): 19.1 pg | MCHC ([…], time 28 day): 34.3% | MCV ([…], time 28 day): 55.9 fL | Mono ([…], time 28 day): 1.7% | Neu ([…], time 28 day): 14% | PT ([…], time 28 day): 16.4 s | Plat ([…], time 28 day): 97.9 x10_4/uL | RBC ([…], time 28 day): 824.3 x10_4/ul | Ret ([…], time 28 day): 2% | WBC ([…], time 28 day): 104.7 x10_2/uL | KIDNEY_L ([…], time 7 day): 0.9 g | KIDNEY_R ([…], time 7 day): 1 g | KIDNEY_TOTAL ([…], time 7 day): 1.9 g | KIDNEY_L ([…], time 14 day): 1 g | KIDNEY_R ([…], time 14 day): 1 g | KIDNEY_TOTAL ([…], time 14 day): 2 g | KIDNEY_L ([…], time 28 day): 1.2 g | KIDNEY_R ([…], time 28 day): 1.2 g | KIDNEY_TOTAL ([…], time 28 day): 2.4 g | LIVER ([…], time 7 day): 9.5 g | LIVER ([…], time 14 day): 12.8 g | LIVER ([…], time 28 day): 16.8 g | A/G ([…], time 7 day): 0.8 | ALP ([…], time 7 day): 1572.2 IU/L | ALT ([…], time 7 day): 42.6 IU/L | AST ([…], time 7 day): 64.2 IU/L | BUN ([…], time 7 day): 14.4 mg/dL | CRE ([…], time 7 day): 0.2 mg/dL | Ca ([…], time 7 day): 10.6 mg/dL | Cl ([…], time 7 day): 104.8 meq/L | DBIL ([…], time 7 day): 0.008 mg/dL | GLC ([…], time 7 day): 169.2 mg/dL | IP ([…], time 7 day): 8 mg/dL | K ([…], time 7 day): 4.1 meq/L | LDH ([…], time 7 day): 68.2 IU/L | Na ([…], time 7 day): 143.8 meq/L | PL ([…], time 7 day): 144.6 mg/dL | RALB ([…], time 7 day): 2.7 g/dL | TBIL ([…], time 7 day): 0.042 mg/dL | TC ([…], time 7 day): 97 mg/dL | TG ([…], time 7 day): 29.6 mg/dL | TP ([…], time 7 day): 5.9 g/dL | gamma-GTP ([…], time 7 day): 0.8 IU/L | A/G ([…], time 14 day): 0.8 | ALP ([…], time 14 day): 1690.2 IU/L | ALT ([…], time 14 day): 39.8 IU/L | AST ([…], time 14 day): 59.2 IU/L | BUN ([…], time 14 day): 15.8 mg/dL | CRE ([…], time 14 day): 0.2 mg/dL | Ca ([…], time 14 day): 10.9 mg/dL | Cl ([…], time 14 day): 104 meq/L | DBIL ([…], time 14 day): 0.012 mg/dL | GLC ([…], time 14 day): 164.2 mg/dL | IP ([…], time 14 day): 7.6 mg/dL | K ([…], time 14 day): 4.3 meq/L | LDH ([…], time 14 day): 51.2 IU/L | Na ([…], time 14 day): 143.6 meq/L | PL ([…], time 14 day): 135 mg/dL | RALB ([…], time 14 day): 2.6 g/dL | TBIL ([…], time 14 day): 0.042 mg/dL | TC ([…], time 14 day): 78.6 mg/dL | TG ([…], time 14 day): 62.8 mg/dL | TP ([…], time 14 day): 6 g/dL | gamma-GTP ([…], time 14 day): 0.6 IU/L | A/G ([…], time 28 day): 0.9 | ALP ([…], time 28 day): 1692.3 IU/L | ALT ([…], time 28 day): 39.7 IU/L | AST ([…], time 28 day): 57.7 IU/L | BUN ([…], time 28 day): 14.7 mg/dL | CRE ([…], time 28 day): 0.2 mg/dL | Ca ([…], time 28 day): 10.7 mg/dL | Cl ([…], time 28 day): 103.7 meq/L | DBIL ([…], time 28 day): 0.0167 mg/dL | GLC ([…], time 28 day): 174 mg/dL | IP ([…], time 28 day): 7.1 mg/dL | K ([…], time 28 day): 4 meq/L | LDH ([…], time 28 day): 50 IU/L | Na ([…], time 28 day): 143 meq/L | PL ([…], time 28 day): 97.7 mg/dL | RALB ([…], time 28 day): 2.9 g/dL | TBIL ([…], time 28 day): 0.0467 mg/dL | TC ([…], time 28 day): 56.3 mg/dL | TG ([…], time 28 day): 35.3 mg/dL | TP ([…], time 28 day): 6.3 g/dL | gamma-GTP ([…], time 28 day): 0.7 IU/L
